Laboratory results reported in article PMC10175918 (Communications Biology, 2023).
Read-outs that look alike come from different tables or passages of the source.

Assays:
Experiment in all cases: TGFα-shedding assay-based GPCR screening with chimeric Gα subunit proteins
Type in all cases: cell-based
[1] = target: T1, 348 GPCRs (Homo sapiens, UniProt Q9NQS5); settings: 10µM, Favipiravir 100μM
T1 construct: expressed in transfected cells; host or cells: HEK293A

[2] = target: T2, 348 GPCRs (Homo sapiens, UniProt P60893); settings: 10µM, Favipiravir 100μM
T2 construct: expressed in transfected cells; host or cells: HEK293A

[3] = target: T3, 348 GPCRs (Homo sapiens, UniProt P47871); settings: 10µM, Favipiravir 100μM
T3 construct: expressed in transfected cells; host or cells: HEK293A

[4] = target: T4, 348 GPCRs (Homo sapiens, UniProt P46091)
T4 construct: expressed in transfected cells; host or cells: HEK293A
T4 sequence (P46091 1-355): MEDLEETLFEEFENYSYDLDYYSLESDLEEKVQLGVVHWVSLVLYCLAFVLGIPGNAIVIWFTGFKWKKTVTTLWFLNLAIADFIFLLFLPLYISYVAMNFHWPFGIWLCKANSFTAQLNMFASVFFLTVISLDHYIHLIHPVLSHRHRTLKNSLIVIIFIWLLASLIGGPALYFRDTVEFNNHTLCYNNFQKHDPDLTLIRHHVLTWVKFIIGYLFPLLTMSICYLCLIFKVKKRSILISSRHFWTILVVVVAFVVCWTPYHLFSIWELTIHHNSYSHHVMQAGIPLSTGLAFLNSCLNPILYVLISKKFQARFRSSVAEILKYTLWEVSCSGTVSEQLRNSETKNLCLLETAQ

[5] = target: T5, 348 GPCRs (Homo sapiens, UniProt Q9NYW3); settings: 10µM, Favipiravir 100μM
T5 construct: expressed in transfected cells; host or cells: HEK293A
T5 sequence (Q9NYW3 1-318): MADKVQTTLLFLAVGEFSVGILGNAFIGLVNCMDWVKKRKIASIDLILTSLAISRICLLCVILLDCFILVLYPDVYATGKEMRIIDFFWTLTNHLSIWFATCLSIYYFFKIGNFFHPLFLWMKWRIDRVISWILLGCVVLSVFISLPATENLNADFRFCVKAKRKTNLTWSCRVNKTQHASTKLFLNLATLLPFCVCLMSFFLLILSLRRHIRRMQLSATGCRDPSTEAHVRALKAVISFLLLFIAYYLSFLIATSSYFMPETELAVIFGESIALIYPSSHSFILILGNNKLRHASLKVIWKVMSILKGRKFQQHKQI

[6] = target: T6, 348 GPCRs (Homo sapiens, UniProt P21730); settings: 10µM, Favipiravir 100μM
T6 construct: expressed in transfected cells; host or cells: HEK293A
T6 sequence (P21730 1-350): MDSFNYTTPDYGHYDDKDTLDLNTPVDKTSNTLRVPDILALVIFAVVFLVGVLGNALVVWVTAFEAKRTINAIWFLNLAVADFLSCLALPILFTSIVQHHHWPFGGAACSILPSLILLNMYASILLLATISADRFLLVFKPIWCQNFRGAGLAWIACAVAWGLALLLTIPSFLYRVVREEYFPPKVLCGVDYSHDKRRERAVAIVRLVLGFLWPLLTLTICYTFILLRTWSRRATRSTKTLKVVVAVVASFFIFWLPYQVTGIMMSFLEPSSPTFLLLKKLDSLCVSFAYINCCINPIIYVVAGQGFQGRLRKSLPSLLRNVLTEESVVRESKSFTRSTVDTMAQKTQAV

[7] = target: T7, 348 GPCRs (Homo sapiens, UniProt P41586); settings: 10µM, Favipiravir 100μM
T7 construct: expressed in transfected cells; host or cells: HEK293A
T7 sequence (P41586 21-468): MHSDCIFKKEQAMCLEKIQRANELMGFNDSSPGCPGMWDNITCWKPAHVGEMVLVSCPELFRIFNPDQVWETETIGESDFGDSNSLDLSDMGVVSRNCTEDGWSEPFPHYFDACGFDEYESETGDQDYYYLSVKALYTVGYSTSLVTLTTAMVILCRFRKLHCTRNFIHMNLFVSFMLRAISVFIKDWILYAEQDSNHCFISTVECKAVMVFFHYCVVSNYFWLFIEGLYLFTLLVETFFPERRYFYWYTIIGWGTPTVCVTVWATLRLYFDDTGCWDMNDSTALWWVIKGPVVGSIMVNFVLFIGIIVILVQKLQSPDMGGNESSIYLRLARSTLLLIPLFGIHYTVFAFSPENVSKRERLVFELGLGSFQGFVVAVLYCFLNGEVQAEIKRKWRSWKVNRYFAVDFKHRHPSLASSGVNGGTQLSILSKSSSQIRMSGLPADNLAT

[8] = target: 348 GPCRs (Homo sapiens, UniProt P30872); settings: 10µM, Favipiravir 100μM
[9] = target: T8, 348 GPCRs (Homo sapiens, UniProt P46663); settings: 10µM, Favipiravir 100μM
T8 construct: expressed in transfected cells; host or cells: HEK293A
T8 sequence (P46663 1-353): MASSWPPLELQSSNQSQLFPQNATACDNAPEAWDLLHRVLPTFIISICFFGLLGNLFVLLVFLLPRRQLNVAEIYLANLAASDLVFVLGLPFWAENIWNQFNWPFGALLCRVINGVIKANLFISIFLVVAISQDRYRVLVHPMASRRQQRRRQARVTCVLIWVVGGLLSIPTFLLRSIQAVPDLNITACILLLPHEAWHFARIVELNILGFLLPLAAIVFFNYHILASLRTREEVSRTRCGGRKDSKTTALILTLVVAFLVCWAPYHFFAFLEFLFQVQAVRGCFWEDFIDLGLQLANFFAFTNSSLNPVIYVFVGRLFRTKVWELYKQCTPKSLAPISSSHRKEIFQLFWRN

[10] = GPR84 (G protein-coupled receptor 84), read-out: % GPCR activation compared to TPA
[11] = GPR85 (G protein-coupled receptor 85), read-out: % GPCR activation compared to TPA
[12] = GCGR (glucagon receptor), read-out: % GPCR activation compared to TPA
[13] = GPCR GPR1 (G protein-coupled receptor 1), read-out: % GPCR activation compared to TPA
[14] = TAS2R7 (taste receptor, type 2, member 7), read-out: % GPCR activation compared to TPA
[15] = C5AR1 (complement C5a receptor 1), read-out: % GPCR activation compared to TPA
[16] = ADCYAP1 (ADCYAP receptor type I), read-out: % GPCR activation compared to TPA
[17] = SSTR1 (somatostatin receptor 1), read-out: % GPCR activation compared to TPA
[18] = B1 (bradykinin receptor B1), read-out: % GPCR activation compared to TPA
[19] = read-out: % GPCR activation compared to TPA, GPR84 (G protein-coupled receptor 84)
[20] = read-out: % GPCR activation compared to TPA, GPR85 (G protein-coupled receptor 85)
[21] = read-out: % GPCR activation compared to TPA, GCGR (glucagon receptor)
[22] = read-out: % GPCR activation compared to TPA, GPCR GPR1 (G protein-coupled receptor 1)
[23] = read-out: % GPCR activation compared to TPA, TAS2R7 (taste receptor, type 2, member 7)
[24] = read-out: % GPCR activation compared to TPA, C5AR1 (complement C5a receptor 1)
[25] = read-out: % GPCR activation compared to TPA, ADCYAP1 (ADCYAP receptor type I)
[26] = read-out: % GPCR activation compared to TPA, SSTR1 (somatostatin receptor 1)
[27] = read-out: % GPCR activation compared to TPA, B1 (bradykinin receptor B1)

T1 sequence (Q9NQS5 whole entry): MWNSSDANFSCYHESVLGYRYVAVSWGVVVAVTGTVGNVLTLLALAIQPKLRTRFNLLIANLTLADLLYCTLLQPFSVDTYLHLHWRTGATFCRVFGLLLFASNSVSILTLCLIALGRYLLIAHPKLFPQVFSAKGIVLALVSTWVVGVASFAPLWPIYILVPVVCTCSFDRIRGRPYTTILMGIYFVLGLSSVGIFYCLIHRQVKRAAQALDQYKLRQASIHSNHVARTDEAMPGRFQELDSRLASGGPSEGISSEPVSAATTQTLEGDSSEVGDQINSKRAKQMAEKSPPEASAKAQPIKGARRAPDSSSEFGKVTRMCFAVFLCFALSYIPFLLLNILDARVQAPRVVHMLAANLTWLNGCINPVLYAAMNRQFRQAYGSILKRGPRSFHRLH
T3 sequence (P47871 26-477): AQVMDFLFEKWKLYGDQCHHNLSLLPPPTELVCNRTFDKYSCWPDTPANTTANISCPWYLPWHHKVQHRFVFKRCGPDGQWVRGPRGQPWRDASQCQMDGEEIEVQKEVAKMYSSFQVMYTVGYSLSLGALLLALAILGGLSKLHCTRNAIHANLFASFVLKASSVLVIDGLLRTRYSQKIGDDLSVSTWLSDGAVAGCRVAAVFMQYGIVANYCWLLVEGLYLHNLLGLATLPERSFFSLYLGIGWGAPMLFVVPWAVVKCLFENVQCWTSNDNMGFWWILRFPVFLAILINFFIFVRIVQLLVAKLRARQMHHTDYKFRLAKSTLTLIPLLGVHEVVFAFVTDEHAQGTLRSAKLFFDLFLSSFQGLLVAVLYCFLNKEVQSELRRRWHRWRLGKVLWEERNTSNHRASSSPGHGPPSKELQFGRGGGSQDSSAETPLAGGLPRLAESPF
T2 sequence (P60893 whole entry): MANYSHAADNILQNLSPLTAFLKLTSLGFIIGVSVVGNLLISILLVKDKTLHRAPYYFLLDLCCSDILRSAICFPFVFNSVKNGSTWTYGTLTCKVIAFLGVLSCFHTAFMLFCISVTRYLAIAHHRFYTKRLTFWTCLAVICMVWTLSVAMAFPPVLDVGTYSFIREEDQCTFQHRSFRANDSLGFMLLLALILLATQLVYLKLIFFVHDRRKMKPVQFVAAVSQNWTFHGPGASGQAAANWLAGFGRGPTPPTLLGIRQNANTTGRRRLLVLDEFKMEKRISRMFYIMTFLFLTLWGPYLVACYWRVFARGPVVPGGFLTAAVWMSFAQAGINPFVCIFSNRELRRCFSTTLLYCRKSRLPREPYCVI
Chain of 348 GPCRs (Homo sapiens, UniProt P30872) (P30872 whole entry): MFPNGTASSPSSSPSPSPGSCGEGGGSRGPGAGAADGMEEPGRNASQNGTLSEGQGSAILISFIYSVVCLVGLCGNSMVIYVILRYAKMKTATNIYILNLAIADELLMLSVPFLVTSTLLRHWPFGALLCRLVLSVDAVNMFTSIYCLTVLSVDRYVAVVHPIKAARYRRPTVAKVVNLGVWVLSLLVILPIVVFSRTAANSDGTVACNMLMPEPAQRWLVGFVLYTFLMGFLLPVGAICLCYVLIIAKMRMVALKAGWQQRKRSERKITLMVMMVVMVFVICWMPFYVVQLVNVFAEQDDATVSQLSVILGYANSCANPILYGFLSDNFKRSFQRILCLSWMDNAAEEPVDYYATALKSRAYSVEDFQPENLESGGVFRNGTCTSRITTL

activation at 100 µM [1, 10] [%]	activation at 100 µM [2, 11] [%]	activation at 100 µM [3, 12] [%]	activation at 10 µM [4, 13] [%]	activation at 10 µM [5, 14] [%]	activation at 10 µM [6, 15] [%]	activation at 100 µM [7, 16] [%]	activation at 10 µM [8, 17] [%]	activation at 10 µM [9, 18] [%]	activation at 100 µM ([4]; GPCR GPR1 (G protein-coupled receptor 1), 100μM, read-out: % GPCR activation compared to TPA) [%]	Compound	activation at 100 µM [1, 19] [%]	activation at 100 µM [2, 20] [%]	activation at 100 µM [3, 21] [%]	activation at 10 µM [4, 22] [%]	activation at 10 µM [5, 23] [%]	activation at 10 µM [6, 24] [%]	activation at 100 µM [7, 25] [%]	activation at 10 µM [8, 26] [%]	activation at 10 µM [9, 27] [%]
5.15	2.04	0.277	-3.33	-0.22	-2.17	3.21	-0.554	1.31	–	N#C[C@@]1(c2ccc3c(N)ncnn23)O[C@H](CO)[C@@H](O)[C@H]1O [GS441524]	–	–	–	–	–	–	–	–	–
-0.768	3.44	2.23	–	-0.16	-6.83	-0.29	0.537	5.17	-1.92	NC(=O)c1nc(F)cnc1O [favipiravir, 6-fluoro-3-hydroxy-2-pyrazinecarboxamide]	–	–	–	–	–	–	–	–	–
-3.53	-2.83	0.495	-1.07	-0.399	-2.78	-0.597	0.451	-3.36	–	CC(C)C(=O)OC[C@H]1O[C@@H](n2ccc(NO)nc2=O)[C@H](O)[C@@H]1O [molnupiravir]	–	–	–	–	–	–	–	–	–
–	–	–	–	–	–	–	–	–	–	CCC(CC)COC(=O)[C@H](C)N[P@](=O)(OC[C@H]1O[C@@](C#N)(c2ccc3c(N)ncnn23)[C@H](O)[C@@H]1O)Oc1ccccc1 [remdesivir]	2.57	6.64	2.91	2.72	0.159	-1.43	2.11	2.79	8.43
–	–	–	–	–	–	–	–	–	–	CC(C)OC(=O)[C@H](C)N[P@](=O)(OC[C@H]1O[C@@H](n2ccc(=O)[nH]c2=O)[C@](C)(F)[C@@H]1O)Oc1ccccc1 [sofosbuvir]	-3.67	-3.71	-0.806	-2.4	0.253	-2.89	-0.225	-0.638	-5
